# Assays:
# Assay in all cases: relative viability (nuclei count vs DMSO), 5 days (fraction); higher = more cells survive
# [1] = compound: CCn1c(-c2nonc2N)nc2cnc(Oc3cccc(NC(=O)c4ccc(OCCN5CCOCC5)cc4)c3)cc21 + CC1(C)CCC(c2ccc(Cl)cc2)=C(CN2CCN(c3ccc(C(=O)NS(=O)(=O)c4ccc(N[C@H](CCN5CCOCC5)CSc5ccccc5)c(S(=O)(=O)C(F)(F)F)c4)cc3)CC2)C1 [Navitoclax] (partner 0.5 µM)
# How it was run: (§1)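 A single step with final 0.05% Triton X-100, 1% formaldehyde and 1 ug/ml Hoechst fixed the cells and stained nuclei 5 days after treatment. Lung cancer cell lines in 1536-well plates had been treated by pin tool the day after seeding with one drug alone or a fixed anchor-drug dose plus five library-drug doses (not always all listed) in √10 steps, and nuclei were counted on 4× images. Relative viability is the ratio of nuclei in treated wells to nuclei in vehicle wells, taken as the median of duplicate plates.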
# [2] = compound: CCn1c(-c2nonc2N)nc2cnc(Oc3cccc(NC(=O)c4ccc(OCCN5CCOCC5)cc4)c3)cc21 + CC(=O)c1c(C)c2cnc(Nc3ccc(N4CCNCC4)cn3)nc2n(C2CCCC2)c1=O [Palbociclib] (partner 0.5 µM)
# How it was run: as §1
# [3] = compound: CCC1=CN=CN=C1N2CCN(CC2)CC3=NC4=C(N3)C=C(C=C4)C(F)(F)F + Cc1nc(Nc2ncc(C(=O)Nc3c(C)cccc3Cl)s2)cc(N2CCN(CCO)CC2)n1 [Dasatinib] (partner 0.075 µM)
# How it was run: as §1
# Mirin + AZD7762 = compound: N=C1NC(=O)/C(=C/c2ccc(O)cc2)S1 [Mirin] + NC(=O)Nc1cc(-c2cccc(F)c2)sc1C(=O)N[C@H]1CCCNC1 [AZD7762] (partner 0.2 µM)
# How it was run: as §1
Cell Line,relative viability ([1]; first compound 0.04 µM),relative viability ([1]; first compound 0.1265 µM),relative viability ([1]; first compound 0.4 µM),relative viability ([1]; first compound 1.265 µM),relative viability ([1]; first compound 4 µM),relative viability ([2]; first compound 0.04 µM),relative viability ([2]; first compound 0.1265 µM),relative viability ([2]; first compound 0.4 µM),relative viability ([2]; first compound 1.265 µM),relative viability ([2]; first compound 4 µM),relative viability ([3]; first compound 0.04 µM),relative viability ([3]; first compound 0.1265 µM),relative viability ([3]; first compound 0.4 µM),relative viability ([3]; first compound 1.265 µM),relative viability ([3]; first compound 4 µM),relative viability (Mirin + AZD7762; first compound 0.25 µM),relative viability (Mirin + AZD7762; first compound 0.7906 µM),relative viability (Mirin + AZD7762; first compound 2.5 µM),relative viability (Mirin + AZD7762; first compound 7.906 µM),relative viability (Mirin + AZD7762; first compound 25 µM)
NCI-H2085,1.39,1.08,1.02,0.937,1.01,0.514,0.44,0.402,0.359,0.39,0.233,0.245,0.303,0.218,0.251,0.929,1.11,0.979,1.02,0.883
NCI-H2087,–,0.789,0.962,0.785,0.598,0.362,0.218,0.336,0.2,0.228,0.729,0.809,0.529,0.508,0.598,1.31,1.59,1.45,1.3,1.75
NCI-H2126,0.87,0.822,0.825,0.917,0.84,0.362,0.338,0.355,0.361,0.325,0.589,0.593,0.535,0.516,0.485,1.11,1.03,1.05,1.11,0.951
NCI-H2170,0.392,0.602,0.539,0.626,0.633,0.434,0.405,0.378,0.408,0.407,0.547,0.631,0.487,0.505,0.475,0.926,0.752,0.823,0.849,0.848
NCI-H2347,0.967,0.811,0.858,0.365,0.502,0.432,0.455,0.385,0.376,0.381,0.257,0.4,0.281,0.351,0.339,0.946,0.786,0.861,0.669,0.704
NCI-H2405,1.16,0.361,0.367,0.183,0.144,0.572,0.361,0.304,0.234,0.222,0.158,0.189,0.207,–,0.216,0.747,–,0.798,0.734,0.599
NCI-H3122,1.02,1.03,1.05,0.974,0.979,0.209,0.182,0.184,0.19,0.19,0.848,0.781,0.804,0.709,1.02,1.01,0.954,0.927,1.07,1.1
PC-3 [JPC-3],0.846,0.814,0.801,0.866,0.779,0.539,0.548,0.444,0.497,0.482,0.978,0.935,0.889,1,0.969,0.88,0.782,0.896,0.843,0.989
PC-14,1.1,1.01,0.924,0.934,0.748,0.578,0.432,0.466,0.486,0.414,0.269,0.258,0.264,0.218,0.264,0.389,0.481,0.365,0.313,0.429
RERF-LC-KJ,0.867,0.828,0.946,0.603,0.481,1.1,1.08,0.969,0.655,0.678,0.768,0.714,0.846,0.69,0.696,1.17,0.878,0.953,0.814,1.08

# From the supplement of paper PMC10307832
